# Test results published in ChEMBL document CHEMBL6127079, “Design and synthesis of spiro[pyrrolidine-3,3'-quinoline]-2,2'-dione derivatives as novel antifungal agents targeting chitin synthase” (Eur J Med Chem, 2024).
# Active and inactive are the calls of the source. The rule behind the calls is not given here.
# Key:
# [1] = tested on: Aspergillus fumigatus; test: Synergistic antifungal activity against Aspergillus fumigatus GIMCC 3.19 assessed as fractional inhibitory concentration index in presence of Polyoxin B incubated for 24 hrs by half broth dilution based checkerboard method; format: functional
# [2] = tested on: Candida albicans; test: Antifungal activity against micafungin-resistant Candida albicans ATCC 76615 assessed as inhibition of fungal growth incubated for 24 to 72 hrs; format: functional; details: time 24-72 hrs
# [3] = tested on: Candida albicans; test: Synergistic antifungal activity against Candida albicans ATCC 76615 assessed as fractional inhibitory concentration index in presence of fluconazole incubated for 24 hrs by half broth dilution based checkerboard method; format: functional
# [4] = tested on: Candida tropicalis; test: Inhibition of chitin synthase extracted from Candida tropicalis ATCC 750 using UDP-GlcNAc as substrate assessed as inhibition rate at 300 ug/ml by TMB based microplate analyzer relative to control; details: dose 300.0 µg/ml
# [5] = tested on: Candida albicans; test: Antifungal activity against Candida albicans ATCC 76615 assessed as fluconazole MIC incubated for 24 hrs in presence of fluconazole by half broth dilution based checkerboard method; format: functional
# [6] = tested on: A549; test: Cytotoxicity against human A549 cells assessed as reduction in cell viability at 64 microg/ml incubated for 24 hrs by CCK-8 assay relative to control; format: toxicity, cell-based; details: a549, 24 h, at 64 µg/mL
# [7] = tested on: Cryptococcus neoformans; test: Synergistic antifungal activity against Cryptococcus neoformans ATCC 32719 assessed as fractional inhibitory concentration index in presence of Polyoxin B incubated for 24 hrs by half broth dilution based checkerboard method; format: functional
# [8] = tested on: A549; test: Cytotoxicity against human A549 cells assessed as reduction in cell viability at 128 microg/ml incubated for 24 hrs by CCK-8 assay relative to control; format: toxicity, cell-based; details: a549, 24 h, at 128 µg/mL
# [9] = tested on: Candida tropicalis; test: Non-competitive inhibition of chitin synthase extracted from Candida tropicalis ATCC 750 using UDP-GlcNAc as substrate assessed as decrease in Vm with constant Km at 0 to 0.15 mM by Lineweaver-Burk plot analysis; details: dose 0-0.15 mM
# [10] = tested on: Aspergillus fumigatus; test: Antifungal activity against fluconazole-resistant Aspergillus fumigatus GIMCC 3.19 assessed as inhibition of fungal growth incubated for 24 to 72 hrs; format: functional; details: time 24-72 hrs
# [11] = tested on: Cryptococcus neoformans; test: Antifungal activity against Cryptococcus neoformans ATCC 32719 assessed as fluconazole MIC incubated for 24 hrs in presence of fluconazole by half broth dilution based checkerboard method; format: functional
# [12] = tested on: Candida albicans; test: Antifungal activity against Candida albicans ATCC 76615 incubated for 24 hrs by half broth dilution based checkerboard method; format: functional
# [13] = tested on: Cryptococcus neoformans; test: Antifungal activity against Cryptococcus neoformans ATCC 32719 incubated for 24 hrs by half broth dilution based checkerboard method; format: functional
# [14] = tested on: Aspergillus flavus; test: Antifungal activity against Aspergillus flavus ATCC 16870 assessed as Polyoxin B MIC incubated for 24 hrs in presence of fluconazole by half broth dilution based checkerboard method; format: functional
# [15] = tested on: Candida albicans; test: Antifungal activity against drug-resistant Candida albicans ATCC 76615 assessed as inhibition of cell wall synthesis in presence of sorbitol incubated for 24 hrs; format: functional
# [16] = tested on: A549; test: Cytotoxicity against human A549 cells assessed as reduction in cell viability at 4 microg/ml incubated for 24 hrs by CCK-8 assay relative to control; format: toxicity, cell-based; details: a549, 24 h, at 4 µg/mL
# [17] = tested on: Candida albicans; test: Antifungal activity against Candida albicans ATCC 76615 assessed as inhibition of growth incubated for 24 hrs by two-fold serial dilution method; format: functional
# [18] = tested on: Candida albicans; test: Antifungal activity against Candida albicans ATCC 76615 assessed as Polyoxin B MIC incubated for 24 hrs in presence of fluconazole by half broth dilution based checkerboard method; format: functional
# [19] = tested on: Aspergillus flavus; test: Synergistic antifungal activity against Aspergillus flavus ATCC 16870 assessed as fractional inhibitory concentration index in presence of fluconazole incubated for 24 hrs by half broth dilution based checkerboard method; format: functional
# [20] = tested on: Aspergillus fumigatus; test: Antifungal activity against Aspergillus fumigatus GIMCC 3.19 assessed as Polyoxin B MIC incubated for 24 hrs in presence of fluconazole by half broth dilution based checkerboard method; format: functional
# [21] = tested on: Aspergillus flavus; test: Synergistic antifungal activity against Aspergillus flavus ATCC 16870 assessed as fractional inhibitory concentration index in presence of Polyoxin B incubated for 24 hrs by half broth dilution based checkerboard method; format: functional
# [22] = tested on: A549; test: Cytotoxicity against human A549 cells assessed as reduction in cell viability at 8 microg/ml incubated for 24 hrs by CCK-8 assay relative to control; format: toxicity, cell-based; details: a549, 24 h, at 8 µg/mL
# [23] = tested on: Aspergillus flavus; test: Antifungal activity against Aspergillus flavus ATCC 16870 assessed as inhibition of growth incubated for 24 hrs by two-fold serial dilution method; format: functional
# [24] = tested on: Candida albicans; test: Antifungal activity against fluconazole-resistant Candida albicans ATCC 76615 assessed as inhibition of fungal growth incubated for 24 to 72 hrs; format: functional; details: time 24-72 hrs
# [25] = tested on: A549; test: Cytotoxicity against human A549 cells assessed as reduction in cell viability at 32 microg/ml incubated for 24 hrs by CCK-8 assay relative to control; format: toxicity, cell-based; details: a549, 24 h, at 32 µg/mL
# [26] = tested on: Cryptococcus neoformans; test: Antifungal activity against drug-resistant Cryptococcus neoformans ATCC 32719 assessed as inhibition of cell wall synthesis in presence of sorbitol incubated for 24 hrs; format: functional
# [27] = tested on: Candida albicans; test: Synergistic antifungal activity against Candida albicans ATCC 76615 assessed as fractional inhibitory concentration index in presence of Polyoxin B incubated for 24 hrs by half broth dilution based checkerboard method; format: functional
# [28] = Inhibition of chitin synthase extracted from Candida tropicalis ATCC 750 using UDP-GlcNAc as substrate assessed as inhibition rate by TMB based microplate analyzer relative to control
# [29] = tested on: Aspergillus flavus; test: Antifungal activity against drug-resistant Aspergillus flavus ATCC 16870 assessed as inhibition of cell wall synthesis in presence of sorbitol incubated for 24 hrs; format: functional
# [30] = tested on: Aspergillus fumigatus; test: Antifungal activity against Aspergillus fumigatus GIMCC 3.19 assessed as fluconazole MIC incubated for 24 hrs in presence of fluconazole by half broth dilution based checkerboard method; format: functional
# [31] = tested on: Aspergillus fumigatus; test: Antifungal activity against drug-resistant Aspergillus fumigatus GIMCC 3.19 assessed as inhibition of cell wall synthesis in presence of sorbitol incubated for 24 hrs; format: functional
# [32] = tested on: Aspergillus fumigatus; test: Antifungal activity against Aspergillus fumigatus GIMCC 3.19 incubated for 24 hrs by half broth dilution based checkerboard method; format: functional
# [33] = tested on: Aspergillus fumigatus; test: Antifungal activity against Aspergillus fumigatus GIMCC 3.19 assessed as inhibition of growth incubated for 24 hrs by two-fold serial dilution method; format: functional
# [34] = tested on: Aspergillus flavus; test: Antifungal activity against Aspergillus flavus ATCC 16870 incubated for 24 hrs by half broth dilution based checkerboard method; format: functional
# [35] = tested on: Cryptococcus neoformans; test: Antifungal activity against Cryptococcus neoformans ATCC 32719 assessed as inhibition of growth incubated for 24 hrs by two-fold serial dilution method; format: functional
# [36] = tested on: Aspergillus fumigatus; test: Synergistic antifungal activity against Aspergillus fumigatus GIMCC 3.19 assessed as fractional inhibitory concentration index in presence of fluconazole incubated for 24 hrs by half broth dilution based checkerboard method; format: functional
# [37] = tested on: Cryptococcus neoformans; test: Synergistic antifungal activity against Cryptococcus neoformans ATCC 32719 assessed as fractional inhibitory concentration index in presence of fluconazole incubated for 24 hrs by half broth dilution based checkerboard method; format: functional
# [38] = tested on: Cryptococcus neoformans; test: Antifungal activity against fluconazole-resistant Cryptococcus neoformans ATCC 32719 assessed as inhibition of fungal growth incubated for 24 to 72 hrs; format: functional; details: time 24-72 hrs
# [39] = tested on: Aspergillus flavus; test: Antifungal activity against fluconazole-resistant Aspergillus flavus ATCC 16870 assessed as inhibition of fungal growth incubated for 24 to 72 hrs; format: functional; details: time 24-72 hrs
# [40] = tested on: A549; test: Cytotoxicity against human A549 cells assessed as reduction in cell viability at 16 microg/ml incubated for 24 hrs by CCK-8 assay relative to control; format: toxicity, cell-based; details: a549, 24 h, at 16 µg/mL
# [41] = tested on: Cryptococcus neoformans; test: Antifungal activity against Cryptococcus neoformans ATCC 32719 assessed as Polyoxin B MIC incubated for 24 hrs in presence of fluconazole by half broth dilution based checkerboard method; format: functional
# [42] = tested on: Aspergillus flavus; test: Antifungal activity against Aspergillus flavus ATCC 16870 assessed as fluconazole MIC incubated for 24 hrs in presence of fluconazole by half broth dilution based checkerboard method; format: functional
# [43] = Non-competitive inhibition of chitin synthase extracted from Candida tropicalis ATCC 750 using UDP-GlcNAc as substrate assessed as inhibition constant by Lineweaver-Burk plot analysis
compound,measurement,setting,value
Cc1cc([N+](=O)[O-])ccc1NC(=O)C1CCN(CC(=O)Nc2ccc3c(c2)NC(=O)C2(CCNC2=O)C3)CC1 (racemic),fractional inhibitory concentration index (FICI),[1],2
same,MIC,[2],64 µg/mL
same,fractional inhibitory concentration index (FICI),[3],1
same,inhibition,[4],85.2%
same,MIC,[5],1.25 µg/mL
same,Activity,[6],87.6%
same,fractional inhibitory concentration index (FICI),[7],1.5
same,Activity,[8],73.5%
same,inhibition,[9],Active
same,MIC,[10],32 µg/mL
same,MIC,[11],1.5 µg/mL
same,MIC,[12],8 µg/mL
same,MIC,[13],8 µg/mL
same,MIC,[14],16 µg/mL
same,MIC,[15],256 µg/mL
same,Activity,[16],97.1%
same,MIC,[17],8 µg/mL
same,MIC,[18],8 µg/mL
same,fractional inhibitory concentration index (FICI),[19],1.5
same,MIC,[20],16 µg/mL
same,fractional inhibitory concentration index (FICI),[21],0.75
same,Activity,[22],93.8%
same,MIC,[23],16 µg/mL
same,MIC,[24],64 µg/mL
same,Activity,[25],91.9%
same,MIC,[26],512 µg/mL
same,fractional inhibitory concentration index (FICI),[27],0.625
same,IC50,[28],93 µM
same,MIC,[29],256 µg/mL
same,MIC,[30],0.75 µg/mL
same,MIC,[31],128 µg/mL
same,MIC,[32],16 µg/mL
same,MIC,[33],16 µg/mL
same,MIC,[34],16 µg/mL
same,MIC,[35],8 µg/mL
same,fractional inhibitory concentration index (FICI),[36],2
same,fractional inhibitory concentration index (FICI),[37],0.75
same,MIC,[38],64 µg/mL
same,MIC,[39],32 µg/mL
same,Activity,[40],92.2%
same,MIC,[41],8 µg/mL
same,MIC,[42],0.625 µg/mL
same,Ki,[43],108 µM
NC(=O)OC[C@H](O)[C@@H](O)[C@H](N)C(=O)N[C@H](C(=O)O)[C@H]1O[C@@H](n2cc(CO)c(=O)[nH]c2=O)[C@H](O)[C@@H]1O [POLYOXIN B],inhibition,[4],86.4%
same,Activity,[6],91.2%
same,Activity,[8],84.3%
same,MIC,[12],16 µg/mL
same,MIC,[13],16 µg/mL
same,Activity,[16],99.2%
same,MIC,[17],16 µg/mL
same,Activity,[22],98.8%
same,MIC,[23],16 µg/mL
same,Activity,[25],92.7%
same,MIC,[26],256 µg/mL
same,IC50,[28],82 µM
same,MIC,[29],512 µg/mL
same,MIC,[31],128 µg/mL
same,MIC,[32],8 µg/mL
same,MIC,[33],8 µg/mL
same,MIC,[34],16 µg/mL
same,MIC,[35],16 µg/mL
same,Activity,[40],97.9%
O=C(/C=C/C(=O)Nc1nc2ccccc2s1)Nc1ccc2c(c1)NC(=O)C1(CCNC1=O)C2 (racemic),fractional inhibitory concentration index (FICI),[1],1.5
same,MIC,[2],64 µg/mL
same,fractional inhibitory concentration index (FICI),[3],0.5
same,inhibition,[4],82.5%
same,MIC,[5],2 µg/mL
same,Activity,[6],79.1%
same,fractional inhibitory concentration index (FICI),[7],1
same,Activity,[8],68.4%
same,inhibition,[9],Active
same,MIC,[10],32 µg/mL
same,MIC,[11],4 µg/mL
same,MIC,[12],2 µg/mL
same,MIC,[13],2 µg/mL
same,MIC,[14],8 µg/mL
same,MIC,[15],128 µg/mL
same,Activity,[16],93.5%
same,MIC,[17],8 µg/mL
same,MIC,[18],2 µg/mL
same,fractional inhibitory concentration index (FICI),[19],0.75
same,MIC,[20],2 µg/mL
same,fractional inhibitory concentration index (FICI),[21],0.75
same,Activity,[22],90.5%
same,MIC,[23],16 µg/mL
same,MIC,[24],64 µg/mL
same,Activity,[25],87.9%
same,MIC,[26],64 µg/mL
same,fractional inhibitory concentration index (FICI),[27],0.5
same,IC50,[28],104 µM
same,MIC,[29],128 µg/mL
same,MIC,[30],4 µg/mL
same,MIC,[31],64 µg/mL
same,MIC,[32],2 µg/mL
same,MIC,[33],4 µg/mL
same,MIC,[34],4 µg/mL
same,MIC,[35],4 µg/mL
same,fractional inhibitory concentration index (FICI),[36],1.5
same,fractional inhibitory concentration index (FICI),[37],1
same,MIC,[38],64 µg/mL
same,MIC,[39],32 µg/mL
same,Activity,[40],91.1%
same,MIC,[41],4 µg/mL
same,MIC,[42],2 µg/mL
same,Ki,[43],114 µM
